Measured values taken from patent publication US20250169499A1, “IMAZAMOX AND GLYPHOSATE FOR CONTROLLING DIGITARIA INSULARIS” (BASF AGROCHEMICAL PRODUCTS B.V., priority 2021, published 2025).

Columns and labels:
Assay type in all cases: in vivo, Digitaria insularis
Details in all cases: DASH 0.5% v/v
D. insularis (perennial) = experiment: Field trial, post-emergence application A (desiccation 30 days before soybean sowing), visual weed control rated 14 DAA-A
Description: (§1) A soil sample from the experimental site was analyzed and provided pH H2O 5.3; 0 cmolc H+Al^+3/dm^3; 4.2 cmolc/dm^3 Ca^+2; 1.6 cmolc/dm^3 Mg^+2; 242 mg/dm^3 K^+; 42.3 mg/dm^3 P; 18% sand; 15% silt and 67% clay.
(§2) For all herbicide applications, the applications were made using a backpack sprayer that was pressurized by CO2 with six flat fan nozzles XR110.015 at 3 bar, which caused the application volume to reach 150 L ha^−1.
(§3) Glyphosate was used as a commercially available soluble concentrate (SL)-formulation containing glyphosate as its potassium salt (480 g/l of glyphosate in its acid form), which is commercially available under the trade name Roundup Transorb R.
(§4) Imazamox was used as a commercially available water dispersible granule (WG)-formulation containing 700 g/Kg of imazamox, which is commercially available under the trade name Raptor® 70 DG.
(§5) In table 1, all details related to mode of application of herbicides, and climatic conditions during herbicide application are listed.
Crop sowing (in case of A and B; in case of A*, no crops were sown) was carried out under a no-tillage system, by distributing 16 seeds per meter of a M6410® soybean variety in all treatments with Raptor® 70 DG and also 16 seeds m^−1 of a second soybean cultivar (BMX Potência RR) in the remaining treatments. Immediately before sowing, the seeds of both cultivars were treated with a formulation of fipronil, pyraclostrobin and thiophanate methyl (Standak® Top; 200 mL per ha). Crop fertilization was performed with 300 kg ha^−1 of a commercial N-P-K formulation (02-20-18). […]
After the first application (application “A” and “A*”), two evaluations were performed on the effect of treatments on the weeds emerged at that application. For those evaluations, the infestation of the untreated control is used as reference. These assessments for the damage caused by the herbicides A and B, and the binary herbicide combination thereof were carried out at 14 days after application “A” (14 DAA-A) or 35 days after application “A*” (35-DAA-A*) using a scale from 0 to 100%, compared to the untreated control plants. Here, 0 means no damage and 100 means complete destruction of the plants.
The value E, which is to be expected if the activity of the individual compounds is just additive, was calculated using the method of S. R. Colby (1967) “Calculating synergistic and antagonistic responses of herbicide combinations”, Weeds 15, p. 22 ff. For two component mixtures the value E was calculated by the following formula […]
(§6) If the value observed in this manner is higher than the value E calculated according to Colby, a synergistic effect is present. […]

D. insularis (flowering) = experiment: Field trial, post-emergence application B (desiccation 0 days before soybean sowing), visual weed control rated 28 DAA-B
Description: as §1, §2, §3, §4, §5
Crop sowing (in case of A and B; in case of A*, no crops were sown) was carried out under a no-tillage system, by distributing 16 seeds per meter of a M6410® soybean variety in all treatments with Raptor® 70 DG and also 16 seeds m^−1 of a second soybean cultivar (BMX Potência RR) in the remaining treatments. Immediately before sowing, the seeds of both cultivars were treated with a formulation of fipronil, pyraclostrobin and thiophanate methyl (Standak® Top; 200 mL per ha). Crop fertilization was performed with 300 kg ha^−1 of a commercial N-P-K formulation (02-20-18).
For the post-emergence treatment, the test plants were first grown to a height of 3 to 20 cm, depending on the plant habit, and only then treated. Here, the herbicidal compositions were suspended or emulsified in water as distribution medium and sprayed using finely distributing nozzles.
Herbicide B was formulated as 10% by weight strength suspension concentrate and introduced to the spray liquor with the amount of solvent system used for applying the active compound. […]
(§7) The value E, which is to be expected if the activity of the individual compounds is just additive, was calculated using the method of S. R. Colby (1967) “Calculating synergistic and antagonistic responses of herbicide combinations”, Weeds 15, p. […] For two component mixtures the value E was calculated by the following formula […]
as §6
(§8) The results are summarized in the following tables 2, 3 and 4 that show the herbicidal activity of the individual actives and of their combinations in post-emergence application assessed 14, 28 and 35 day after treatment (DAT), respectively.

[1] = system: D. insularis (early stage - 2 to 6 leaves); experiment: Field trial, post-emergence application A* (no soybean sowing), visual weed control rated 35 DAA-A*
Description: as §1, §2
Glyphosate was used as a commercially available soluble concentrate (SL)-formulation containing glyphosate as its potassium salt (480 g/l of glyphosate in its acid form), which is commercially available under the trade name Roundup Transorb R. […]
as §7, §6, §8

Compound	Control (%) of D. insularis (perennial) (D. insularis (perennial); dose 49 g ai/ha) [%]	Control (%) of D. insularis (perennial) (D. insularis (perennial); dose 70 g ai/ha) [%]	Control (%) of D. insularis (perennial) (D. insularis (perennial); dose 91 g ai/ha) [%]	Control (%) of D. insularis (flowering) (D. insularis (flowering); dose 70 g ai/ha) [%]	Control (%) of D. insularis (flowering) (D. insularis (flowering); dose 105 g ai/ha) [%]	Control (%) of D. insularis (flowering) (D. insularis (flowering); dose 140 g ai/ha) [%]	Control (%) of D. insularis (early stage - 2 to 6 leaves) ([1]; dose 105 g ai/ha) [%]	Control (%) of D. insularis (perennial) (D. insularis (perennial); dose 1080 g ai/ha, scale 0-100% vs untreated) [%]	Control (%) of D. insularis (flowering) (D. insularis (flowering); dose 1440 g ai/ha) [%]	Control (%) of D. insularis (early stage - 2 to 6 leaves) ([1]; dose 1080 g ai/ha) [%]
COCc1cnc(C2=NC(C)(C(C)C)C(=O)N2)c(C(=O)O)c1 (stereo not shown) [Herbicide B, 2-(4-isopropyl-4-methyl-5-oxo-2-imidazolin-2-yl)-5-(methoxymethyl)nicotinic acid]	13	20	20	40	40	50	13			
O=C(O)CNCP(=O)(O)O [Herbicide A, N-(phosphonomethyl)glycine]								5	45	5
